≈ marks a conversion by molar mass, not a printed value. Where “and” joins values, the source holds several entries; their conditions need not be identical. Equal values may be shown once. Read-outs that look alike come from different tables or passages of the source.
How the values were obtained:
[1] = biological target: T1, human NaV1.5 sodium channel (Homo sapiens, UniProt Q14524); format: cell-based
[2] = biological target: T1, human NaV1.5 sodium channel
[3] = system: hERG potassium channel; details: cited from earlier work
[4] = healthy subjects; cited from earlier work
[5] = biological target: T1, human NaV1.5 sodium channel; assay: cell-based; details: IC50 block of late NaV1.5 current, mean ± SEM
[6] = biological target: T1, human NaV1.5 sodium channel; assay: cell-based; details: IC50 block of peak NaV1.5 current, HEK293, mean ± SEM
[7] = biological target: T1, human NaV1.5 sodium channel; remark: listed apart in the source
[8] = system: canine purkinje fibers; details: 30 μM; historical nonclinical assessment, data not reported; cited from earlier work
[9] = human, in vivo
[10] = human, in vivo; remark: listed apart in the source
[11] = cited from earlier work
[12] = lamotrigine containing regimens vs. no ASMs, cited from earlier work
[13] = biological target: T1, human NaV1.5 sodium channel; remark: listed apart in the source
[14] = lamotrigine 15 μg/ml; cited from earlier work
[15] = each drug at or near its IC50, V hold = −120 mV
[16] = each drug at or near its IC50, lamotrigine 280 µM, V hold = −120 mV
[17] = each drug at or near its IC50, lamotrigine 280 μM, mean ± SEM

T1 sequence (Q14524 whole entry): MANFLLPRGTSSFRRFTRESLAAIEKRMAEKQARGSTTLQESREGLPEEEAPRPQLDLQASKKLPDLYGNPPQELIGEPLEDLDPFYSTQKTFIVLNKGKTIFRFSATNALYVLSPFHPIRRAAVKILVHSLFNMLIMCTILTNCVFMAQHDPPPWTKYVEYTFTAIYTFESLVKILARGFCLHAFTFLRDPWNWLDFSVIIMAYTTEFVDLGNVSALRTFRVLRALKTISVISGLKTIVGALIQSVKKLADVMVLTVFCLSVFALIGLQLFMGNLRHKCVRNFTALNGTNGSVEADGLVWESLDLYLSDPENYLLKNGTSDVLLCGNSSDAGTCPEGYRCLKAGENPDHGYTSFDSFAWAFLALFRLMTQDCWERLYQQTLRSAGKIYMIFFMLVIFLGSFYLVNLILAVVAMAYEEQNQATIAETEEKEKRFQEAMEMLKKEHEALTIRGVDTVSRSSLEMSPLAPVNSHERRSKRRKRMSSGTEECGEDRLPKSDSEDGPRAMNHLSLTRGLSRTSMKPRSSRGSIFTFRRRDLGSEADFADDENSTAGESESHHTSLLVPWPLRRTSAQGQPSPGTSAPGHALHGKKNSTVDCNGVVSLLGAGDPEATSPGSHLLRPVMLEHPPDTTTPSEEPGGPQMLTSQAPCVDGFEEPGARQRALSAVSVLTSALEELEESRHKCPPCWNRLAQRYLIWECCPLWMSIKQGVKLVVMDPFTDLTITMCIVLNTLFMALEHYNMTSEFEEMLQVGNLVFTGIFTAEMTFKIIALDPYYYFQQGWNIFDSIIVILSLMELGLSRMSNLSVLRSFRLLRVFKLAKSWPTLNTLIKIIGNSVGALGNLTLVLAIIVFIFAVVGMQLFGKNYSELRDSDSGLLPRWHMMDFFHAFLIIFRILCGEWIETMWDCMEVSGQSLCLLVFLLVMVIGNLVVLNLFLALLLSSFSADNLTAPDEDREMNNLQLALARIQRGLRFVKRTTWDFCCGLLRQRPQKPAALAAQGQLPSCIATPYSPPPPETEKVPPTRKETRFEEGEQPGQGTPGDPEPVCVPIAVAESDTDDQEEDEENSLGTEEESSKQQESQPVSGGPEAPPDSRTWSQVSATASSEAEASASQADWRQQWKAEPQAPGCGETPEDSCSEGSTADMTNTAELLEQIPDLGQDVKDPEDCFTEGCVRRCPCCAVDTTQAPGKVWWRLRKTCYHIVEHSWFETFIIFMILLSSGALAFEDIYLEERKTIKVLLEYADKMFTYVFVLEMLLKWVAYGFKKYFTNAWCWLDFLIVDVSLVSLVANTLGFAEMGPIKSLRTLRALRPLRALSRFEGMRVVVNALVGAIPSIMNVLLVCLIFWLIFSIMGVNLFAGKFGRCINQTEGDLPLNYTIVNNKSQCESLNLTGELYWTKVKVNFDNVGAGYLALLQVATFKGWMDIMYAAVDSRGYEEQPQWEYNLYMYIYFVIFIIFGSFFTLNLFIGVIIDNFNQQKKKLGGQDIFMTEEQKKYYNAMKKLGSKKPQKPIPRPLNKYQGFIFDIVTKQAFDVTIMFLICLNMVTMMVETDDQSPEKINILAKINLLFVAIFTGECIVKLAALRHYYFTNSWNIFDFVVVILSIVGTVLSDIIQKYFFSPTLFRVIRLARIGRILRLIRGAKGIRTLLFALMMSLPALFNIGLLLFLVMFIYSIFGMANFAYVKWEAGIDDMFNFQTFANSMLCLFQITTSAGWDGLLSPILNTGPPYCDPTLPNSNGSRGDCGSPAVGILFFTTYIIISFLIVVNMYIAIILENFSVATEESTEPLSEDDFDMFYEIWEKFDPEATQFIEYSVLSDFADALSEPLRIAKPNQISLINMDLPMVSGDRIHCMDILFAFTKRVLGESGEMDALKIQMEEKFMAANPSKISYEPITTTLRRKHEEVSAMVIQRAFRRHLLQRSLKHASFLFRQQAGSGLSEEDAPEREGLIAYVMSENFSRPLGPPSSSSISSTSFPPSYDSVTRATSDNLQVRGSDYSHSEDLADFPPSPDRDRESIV

Question: What does the source list for `O=C(NCC1CCCCN1)c1cc(OCC(F)(F)F)ccc1OCC(F)(F)F` (centres unmarked) [flecainide]?
Answer: τon contribution by the slow component of the exponential [1, 15]: 45.1%; τon Percent Fast [1, 16]: 54.9%; Tonic block of NaV1.5, percent inhibition [2, 17]: 1.6 ± 1.2%

Question: With `Nc1nnc(-c2cccc(Cl)c2Cl)c(N)n1` [lamotrigine, Lamotrigine] as the compound, how does the IC50 [3] read?
Answer: Its IC50 is 229 µM.

Question: And the “potency (IC50) to block the hERG potassium channel” value [3]?
Answer: Its value is 58.6 µg/mL (≈ 229 µM).

Question: And the “QTc interval, QRS duration, or blood pressure” value [4]?
Answer: Its value is “no increase”.

Question: What about the QTcF [4] of the same compound?
Answer: The QTcF was “small reductions”.

Question: What about the “heart rate and mean PR interval” value [4] of the same compound?
Answer: Its value is “small increases”.

Question: What about the IC50 ([5]; ramp epoch) of the same compound?
Answer: The IC50 was 12.1 µM.

Question: And the IC50 ([5]; −15 mV epoch)?
Answer: The IC50 was 17.2 µM.

Question: What about the IC50 ([6]; V hold = −95 mV, 0.1 Hz) of the same compound?
Answer: Its IC50 is 28.8 µM and 28.9 µM.

Question: What about the IC50 ([6]; V hold = −120 mV) of the same compound?
Answer: Its IC50 is 280 µM.

Question: And the “recovery from block, rate fold faster than quinidine” value [7]?
Answer: The value was 1.4 fold.

Question: And the “off-rate kinetics fold faster than flecainide” value ([7]; high concentration of lamotrigine)?
Answer: The value was > 86 fold.

Question: What about the “τoff slow component, fold faster than quinidine's slow time constant” value ([7]; lamotrigine 25 μM) of the same compound?
Answer: The value was 2.4 fold.

Question: And the “τoff Percent Fast” value ([7]; lamotrigine 25 µM, −120 mV)?
Answer: The value was 58.0%.

Question: What about the “τoff Tau fast” value ([7]; lamotrigine 25 µM, −120 mV) of the same compound?
Answer: Its value is 0.8 ± 0.1 s.

Question: What about the “τoff Tau slow” value ([7]; lamotrigine 25 µM, −120 mV) of the same compound?
Answer: The value was 15.6 ± 5.0 s.

Question: And the “inhibition of action potential upstroke (dV/dt)” value [8]?
Answer: Its value is < 10%.

Question: What about the “safety reports relating to the circulatory system” value [9] of the same compound?
Answer: Its value is 1483 reports.

Question: And the “safety reports relating to the circulatory system, share of all reports” value [9]?
Answer: Its value is 0.021%.

Question: And the “expected increase in PR interval (absolute values)” value (at 15 μg/ml, healthy subjects, outlier included)?
Answer: The value was 18.15 ms.

Question: What about the “decrease in QRS interval (absolute values)” value (at 15 μg/ml, outlier included) of the same compound?
Answer: Its value is 5.94 ms.

Question: What about the “expected PR prolongation relative to baseline” value (at ~20 μg/ml, highest peak concentrations reported in patients) of the same compound?
Answer: Its value is 8.24 ms.

Question: What about the “increase in PR interval as change from baseline” value (healthy subjects, outlier included) of the same compound?
Answer: The value was “up to 6.18 ms”.

Question: What about the “mean PR interval” value (human, in vivo) of the same compound?
Answer: The value was 169 ms.

Question: And the “slope in PR change from baseline per μg/ml of lamotrigine” value (outlier included)?
Answer: Its value is 0.412 ms/µg/mL.

Question: What about the “subjects with QRS interval >120 ms while on lamotrigine” value (outlier included) of the same compound?
Answer: Its value is “None”.

Question: And the free concentration [10]?
Answer: The free concentration was 6600 ng/mL.

Question: And the peak unbound concentration [10]?
Answer: The peak unbound concentration was 3.15 to 24.5 µM.

Question: What about the “concentrations expected in over 95% of patients” value [11] of the same compound?
Answer: Its value is “below 15 μg/ml”.

Question: What about the “highest values for peak concentrations reported in patients” value [11] of the same compound?
Answer: Its value is ~ 20 μg/ml.

Question: And the “τon fast component, fold of mexiletine” value [1]?
Answer: Its value is ≤ 1.6 fold.

Question: And the “τon Percent Fast” value [1, 16]?
Answer: Its value is > 92%.

Question: What about the “% block at 200th pulse” value ([1]; lamotrigine 25 µM, V hold = −120 mV) of the same compound?
Answer: Its value is 25.5 ± 1.5% and 26%.

Question: And the “τon fast component, fold faster than flecainide” value ([1]; lamotrigine versus flecainide)?
Answer: The value was 8.4 fold.

Question: What about the “τon fast component, fold faster than quinidine” value ([1]; lamotrigine versus quinidine) of the same compound?
Answer: Its value is 4.7 fold.

Question: And the “SUDEP odds ratio (OR)” value ([12]; 95% CI: 0.31–0.97)?
Answer: The value was 0.55.

Question: What about the “reduction in SUDEP risk” value [12] of the same compound?
Answer: Its value is 45%.

Question: What about the “fold difference in potency at a depolarized potential” value [13] of the same compound?
Answer: Its value is 10 fold.

Question: What about the “percent of the maximum effect of flecainide” value [14] of the same compound?
Answer: The value was ~ 29%.

Question: What about the “Tonic block of NaV1.5, percent inhibition” value [2, 17] of the same compound?
Answer: Its value is 26.8 ± 1.4%.

Question: And the “Tonic block of NaV1.5, percent inhibition” value ([2]; lamotrigine 25 μM, mean ± SEM)?
Answer: Its value is 2.6 ± 2.1%.

Question: For `Cc1cccc(C)c1OCC(C)N` (centres unmarked) [mexiletine], which “τoff Percent Fast” value [7] is on record?
Answer: The value was 83.2%.

Question: And the “τoff Tau fast” value [7]?
Answer: Its value is 0.8 ± 0.03 s.

Question: And the “τon Percent Fast” value [1]?
Answer: The value was 92.9% and > 92%.

Question: And the “Tonic block of NaV1.5, percent inhibition” value ([2]; human)?
Answer: The value was 9.2 ± 1.5%.

Question: What does the source list for `C=C[C@H]1C[N@@]2CC[C@H]1C[C@@H]2[C@@H](O)c1ccnc2ccc(OC)cc12` [quinidine]?
Answer: τoff Tau slow ([7]; each drug at or near its IC50, −120 mV): 37.7 ± 5.9 s; τon contribution by the slow component of the exponential [1, 15]: 26.1%; Tonic block of NaV1.5, percent inhibition [2, 17]: 6.7 ± 1.2%

Source: PMC9372421 (Clinical and Translational Science, 2022)
